Reference: ChEMBL document CHEMBL1201862, “PubChem BioAssay data set” (2004)
Blank lines part the entries; values can stand above or below the compound they belong to. Active and inactive are the calls of the source.

What was measured:
[1] = P. falciparum Dd2 growth inhibitors, dose response, SYBR Green, cherry-picked samples (AID 1159567); assay type: functional, cell-based
HEK293 = test: viability loss in HEK293T cells – cell-based, ATP luminescence, cherry-pick samples, cytotoxicity control, dose response (AID 687005); assay type: functional; settings: Homo sapiens;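 note: cells exposed to compound for 48 hours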
[2] = toxicity to human hepatoma HepG2 cells – cell-based, cherry-picked samples, cytotoxicity control, dose response (AID 1159577); assay type: functional
[3] = HEK293 Cytotoxicity Assay Measured in Cell-Based System Using Plate Reader - 7071-01_Inhibitor_Dose_CherryPick_Activity_Set2.; assay type: functional
[4] = blockers of HIV-1 ZM109 envelope-driven cell-cell fusion – HeLa effector, CEM target cells, luciferase, cherry-pick, dose response (AID 652058); assay type: functional, cell-based;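 note: luciferase signal from HIV-1 Env mediated cell-cell fusion of effector and target cells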
[5] = viability loss in CEM21 cells – cell-based, plate reader, dry powder, cytotoxicity control, dose response (AID 687026); assay type: functional
[6] = inhibition of Env-driven cell fusion – HIV entry, plate reader, dry powder, dose response (AID 687023); assay type: functional, cell-based
[7] = blockers of HIV-1 envelope-mediated cell-cell fusion – cherry-pick, dose response (AID 652057); assay type: functional, cell-based
[8] = HIV-1 AD8 envelope cell-cell fusion blockers – cherry-pick, dose response (AID 652062); assay type: functional, cell-based;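 note: luciferase signal from cell-cell fusion driven by HIV-1 clade B AD8 Env; potency is for inhibitors of fusion seen as a drop in luminescence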
[9] = reduced cellular PGC1a acetyl-lysine signal – cell-based, cherry-picked samples, dose response (AID 720514); assay type: functional;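 note: potency may reflect raised or lowered acetylation signal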
[10] = Late stage assay provider results from the probe development effort to identify inhibitors of the Plasmodium falciparum M18 Aspartyl Aminopeptidase (M18AAP): radiolabel-based cell-based dose response assay to identify compounds that inhibit P. falciparum growth in RBCs, Set 2..; assay type: functional
[11] = Dd2 parasite growth inhibition in erythrocytes – SYBR Green, dry powder samples, set 4, dose response (AID 1159572); assay type: functional, cell-based
[12] = Dd2 parasite growth inhibition in erythrocytes – SYBR Green, dry powder samples, set 9, dose response (AID 1159568); assay type: functional, cell-based
[13] = biological target: RNA-editing ligase 1, mitochondrial (Trypanosoma brucei brucei, UniProt P86926); test: inhibition of trypanosome RNA editing ligase – biochemical, fluorescence, Trypanosoma brucei, dose response (AID 1117295); assay type: functional
[14] = RKO cell viability reduction, dose response, CellTiter-Glo luminescence (AID 1117322); assay type: functional
[15] = rise of 4N DNA cells, HeLa – IC50, dose response (AID 1117351); assay type: functional, cell-based
[16] = cytotoxicity toward HCT116 cells – cell-based, CellTiter-Glo luminescence, IC50, dose response (AID 1117332); assay type: functional; settings: HCT-116
[17] = SNU-C1 cell viability reduction, dose response, CellTiter-Glo luminescence (AID 1117323); assay type: functional, cell-based
[18] = cytotoxicity toward Colo320 cells – cell-based, CellTiter-Glo luminescence, IC50, dose response (AID 1117334); assay type: functional; settings: COLO 320
[19] = Reduced DLD-1 viability, concentration-response, CellTiter-Glo luminescence (AID 1117352); assay type: functional
[20] = HCT116 cell viability decrease, GSK3B pretreatment – CellTiter-Glo, IC50, dose response (AID 1117339); assay type: functional; settings: HCT-116
[21] = rise of 2N DNA cells, HeLa – IC50, dose response (AID 1117349); assay type: functional, cell-based
[22] = cytotoxicity toward HT-29 cells – cell-based, CellTiter-Glo luminescence, IC50, dose response (AID 1117330); assay type: functional
[23] = CellTiter-Glo luminescence survival assay, SW480 colon tumor line, concentration-response curve, half-maximal inhibitory concentration (AID 1117338); assay type: functional

Sequence of RNA-editing ligase 1, mitochondrial (P86926 whole entry): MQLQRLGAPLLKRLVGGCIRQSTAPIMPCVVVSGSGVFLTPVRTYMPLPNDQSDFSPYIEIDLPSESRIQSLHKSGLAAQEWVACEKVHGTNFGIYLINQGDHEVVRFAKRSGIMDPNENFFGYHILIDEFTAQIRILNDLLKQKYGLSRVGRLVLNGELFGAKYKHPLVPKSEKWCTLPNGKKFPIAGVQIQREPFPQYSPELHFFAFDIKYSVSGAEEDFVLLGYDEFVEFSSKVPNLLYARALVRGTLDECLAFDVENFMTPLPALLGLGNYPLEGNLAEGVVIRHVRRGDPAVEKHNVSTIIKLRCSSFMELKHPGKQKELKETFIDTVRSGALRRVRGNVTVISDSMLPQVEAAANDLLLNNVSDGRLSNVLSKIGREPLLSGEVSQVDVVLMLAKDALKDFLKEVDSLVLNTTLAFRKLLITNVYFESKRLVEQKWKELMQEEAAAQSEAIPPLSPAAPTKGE

SMILES: C[C@H](CO)N1C[C@H](C)[C@H](CN(C)S(=O)(=O)c2ccc(F)cc2)Oc2ccc(NS(=O)(=O)c3ccc(Cl)cc3)cc2C1=O
- AC50 [1]: 10 µM (active)
- AC50 (HEK293): 18.9 µM (active)
- AC50 [2]: > 39 µM (inactive)
- AC50 [3]: 18.9 µM (active)

SMILES: CCCNC(=O)N1[C@H](C#N)[C@H](c2ccc(-c3cccnc3)cc2)[C@@H]1CO
- AC50 [4]: 10.2 µM (active)
- AC50 [5]: > 70 µM (inactive)
- AC50 [6]: 1.61 µM (active)
- AC50 [7]: 0.93 µM (active)
- AC50 [8]: 4.97 µM (active)

SMILES: OC[C@@H]1[C@H](c2ccc(/C=C/c3ccccc3)cc2)[C@H]2CN(CCC(F)(F)F)CCCCN12
- AC50 [9]: 17.4 µM (active)

SMILES: Oc1ccc(C2CCN(c3ccnc4ccccc34)C2)cc1O (centres undefined)
- IC50 [10]: 0.93 µM (active)

SMILES: COc1ccc2c3c(n(C)c2c1)[C@H](CO)N(C(C)=O)CC31CCN(C(=O)Nc2ccccc2F)CC1
- AC50 [11]: 6.63 µM (active)

SMILES: C[C@H](CO)N1C[C@H](C)[C@@H](CN(C)C(=O)Nc2ccc(C(F)(F)F)cc2)Oc2c(NC(=O)c3ccc(-c4nccs4)cc3)cccc2C1=O
- AC50 [12]: 6.41 µM (active)

- IC50 [13]: > 96.6 µM (inactive)
SMILES: COC(=O)C1=C(C)N(Cc2ccccc2C(F)(F)F)C(NCc2ccc(OC)cc2)=NC1c1cccc(F)c1 (centres undefined)

SMILES: O=C(NOCC1CC1)c1ccc(F)c(F)c1Nc1ccc(I)cc1Cl [CI-1040]
- IC50 [14]: 0.00319 µM (active)
- IC50 [15]: > 10 µM (inactive)
- IC50 [16]: 0.00179 µM (active)
- IC50 [17]: 0.0171 µM (active)
- IC50 [18]: 0.848 µM (active)
- IC50 [19]: 2.16 µM (active)
- IC50 [20]: 0.969 µM (active)
- IC50 [21]: > 10 µM (inactive)
- IC50 [22]: 0.0263 µM (active)
- IC50 [23]: 0.00495 µM (active)
